Reference: patent US20240287033A1, “DEGRADERS OF TISSUE TRANSGLUTAMINASE 2 (TG2)” (Northwestern University, priority 2023, published 2024)
Entries after “also recorded” stand apart in the source; their conditions may differ.

Columns and labels:
Type in all cases: cell-based
SKOV3 cells [1] = assay: Wound-healing (scratch) assay, SKOV3
Description: (§1) For the scratch assay, confluent 6-well plates were scratched with a pipette tip, washed and treated with compounds or vehicle. The plate was photographed at set time points and the area of wound closure was quantified with ImageJ. Cell migration was assessed by using Transwell inserts (8 μm pore size, Merck-Millipore, Watford, UK). Briefly, 15,000 cells were seeded in the upper chambers of trans-wells in serum-free media containing compounds or control, while media containing 10% serum was added to the lower chamber. After 18 hours, cells invaded through the transwells were fixed with warm 4% PFA for 20 min at room temperature and stained with crystal violet for 3 min. The membranes were removed, mounted on cover slides and cells were counted using a microscope at 40× magnification.

SKOV3 cells [2] = assay: Solid phase adhesion assay on fibronectin, SKOV3
Description: (§2) Briefly, wells were coated with 10 μg/ml fibronectin diluted in PBS for one hour. 30,000 cells pretreated with compounds for 6 hours were seeded and allowed to attach for 30 minutes. After washing with PBS to remove unattached cells, cells adhering to coated wells were quantified by using the CCK-8 assay (ApexBio), following the manufacturer's protocol. Relative absorbance measured at 496 nm was used to estimate the relative number of the cell attached to fibronectin coated wells.

TG2 [3] = target: T1, TG2 (Homo sapiens, UniProt P21980); assay: Western blot analysis of TG2 degradation in SKOV3 cells; details: for TG2 degradation (western blot): 6 hours, up to 10 μM; for TG2 degradation with proteasome inhibitor MG132 co-treatment: 10 μM compound 6 hrs, MG132 20 μM 8 hrs
T1 construct: tested in multiple ovarian cancer cell lines that express TG2 for their ability to degrade the protein; endogenous in cells; host or cells: OVCAR5 and SKOV3 ovarian cancer cells
T1 sequence (P21980 1-687): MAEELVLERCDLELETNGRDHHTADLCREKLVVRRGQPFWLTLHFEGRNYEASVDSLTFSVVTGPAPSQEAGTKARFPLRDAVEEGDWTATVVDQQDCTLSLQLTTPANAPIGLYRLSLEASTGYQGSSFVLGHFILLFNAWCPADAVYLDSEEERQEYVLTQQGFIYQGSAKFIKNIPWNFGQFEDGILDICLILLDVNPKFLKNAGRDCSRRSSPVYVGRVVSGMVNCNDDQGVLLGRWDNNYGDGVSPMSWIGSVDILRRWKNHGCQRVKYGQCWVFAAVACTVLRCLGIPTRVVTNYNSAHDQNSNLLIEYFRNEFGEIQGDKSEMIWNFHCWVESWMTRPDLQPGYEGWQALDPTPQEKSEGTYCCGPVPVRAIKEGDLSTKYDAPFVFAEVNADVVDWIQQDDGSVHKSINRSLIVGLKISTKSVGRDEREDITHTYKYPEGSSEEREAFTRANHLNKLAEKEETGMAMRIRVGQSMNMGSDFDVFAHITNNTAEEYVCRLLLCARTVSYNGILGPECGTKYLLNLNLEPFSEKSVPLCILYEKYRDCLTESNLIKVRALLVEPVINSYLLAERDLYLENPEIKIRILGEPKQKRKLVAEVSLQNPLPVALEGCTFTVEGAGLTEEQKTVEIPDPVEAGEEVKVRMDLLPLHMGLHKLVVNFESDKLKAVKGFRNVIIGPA
Description: (§3) SKOV3 cells were purchased from ATCC. OVCAR5 cells were obtained from Dr. Marcus Peter at Northwestern University. Cells were maintained at 37° C. in an environment of 5% CO2 and 100% humidity. The media used for culturing the cell lines are included in Table 1. Cells lines used in all experiments were at low-passages and were confirmed to be pathogen and mycoplasma-free by Charles River Animal Diagnostic Services. Cell lines were authenticated by IDEXX BioAnalytics with short tandem repeat (STR) profiling. MG132 was obtained from SelleckChem. Anti-TG2 antibody (cat #: MAB3839-I-100UG) was purchased from Millipore Sigma, GAPDH antibody (cat #: H86504M) was purchased from Meridian Bioscience.
(§4) Briefly, SKOV3 and OVCAR5 cells were seeded on 6 cm dishes and treated with different concentrations of compounds at different time points. Proteins were extracted using RIPA buffer and quantified using the Bradford assay. After gel electrophoresis and transfer, PDVF membranes were blocked with TBS-Tween 5% BSA for one hour and incubated with primary antibodies 20 (1:1000 dilution, overnight at 4° C.). After incubation with the secondary antibody (anti rabbit/mouse-horseradish peroxidase 1:1000 dilution) for 1 h at room temperature, signal was developed using SuperSignal West Pico PLUS Chemiluminescent Substrate (Thermo Fisher Scientific cat #: 34580) and captured with an ImageQuant LAS 4000 machine. To detect additional proteins, membranes were treated with Restore Western Blot Stripping Buffer (Thermo Fisher Scientific cat #: 21059), blocked, and then incubated with primary antibody.

OVCAR5 cells [4] = assay: Solid phase adhesion assay on fibronectin, OVCAR5
Description: as §2

TG2 [5] = target: T1, TG2; assay: Western blot analysis of TG2 degradation in OVCAR5 cells; details: 6 hours, 0.1-10 μM
Description: as §3, §4

OVCAR5 cells [6] = assay: Wound-healing (scratch) assay, OVCAR5
Description: as §1

| Compound | cell migration, wound-healing assay (SKOV3 cells [1]) | adhesion of cells to fibronectin (SKOV3 cells [2]) | TG2 degradation (western blot) (TG2 [3]) | adhesion of cells to fibronectin (OVCAR5 cells [4]) | TG2 degradation (western blot) (TG2 [5]) | cell migration, wound-healing assay (OVCAR5 cells [6]) | TG2 degradation with proteasome inhibitor MG132 co-treatment (TG2 [3]) |
| --- | --- | --- | --- | --- | --- | --- | --- |
| Cc1cc(N(C)CCOCCC(=O)N[C@H](C(=O)N2C[C@@H](O)C[C@H]2C(=O)NCc2ccc(-c3scnc3C)cc2)C(C)(C)C)nc(Nc2ccc(NC(=O)Cc3ccccc3)cc2)n1 [Compound 12, (2S,4S)-1-((S)-3,3-dimethyl-2-(3-(2-(methyl(6-methyl-2-((4-(2-phenylacetamido)phenyl)amino)pyrimidin-4-yl)amino)ethoxy)propanamido)butanoyl)-4-hydroxy-N-(4-(4-methylthiazol-5-yl)benzyl)pyrrolidine-2-carboxamide] | did not affect cell migration | did not affect | did not induce TG2 degradation; also recorded: No degradation of TG2 was observed | did not affect | did not induce TG2 degradation; also recorded: No degradation of TG2 was observed | did not affect cell migration | – |
| Cc1cc(N(C)CCOCCOCCOCCOCCOCCC(=O)N[C@H](C(=O)N2C[C@@H](O)C[C@H]2C(=O)NCc2ccc(-c3scnc3C)cc2)C(C)(C)C)nc(Nc2ccc(NC(=O)Cc3ccccc3)cc2)n1 [Compound 13, (2S,4S)-1-((S)-22-(tert-butyl)-2-(6-methyl-2-((4-(2-phenylacetamido)phenyl)amino)pyrimidin-4-yl)-20-oxo-5,8,11,14,17-pentaoxa-2,21-diazatricosan-23-oyl)-4-hydroxy-N-(4-(4-methylthiazol-5-yl)benzyl)pyrrolidine-2-carboxamide] | did not affect cell migration | did not affect | did not induce TG2 degradation; also recorded: No degradation of TG2 was observed | did not affect | did not induce TG2 degradation; also recorded: No degradation of TG2 was observed | did not affect cell migration | – |
| Cc1cc(N(C)CCOCCOCCOCCSC(C)(C)[C@H](NC(=O)C2(F)CC2)C(=O)N2C[C@H](O)C[C@H]2C(=O)NCc2ccc(-c3scnc3C)cc2)nc(Nc2ccc(NC(=O)Cc3ccccc3)cc2)n1 [Compound P404] | reduce the migration | reduce the migration and adhesion capability | degrade TG2 | – | – | – | blocked |
| Cc1cc(N(C)CCOCCSC(C)(C)[C@H](NC(=O)C2(F)CC2)C(=O)N2C[C@H](O)C[C@H]2C(=O)NCc2ccc(-c3scnc3C)cc2)nc(Nc2ccc(NC(=O)Cc3ccccc3)cc2)n1 [Compound P405] | reduce the migration | reduce the migration and adhesion capability | degrade TG2 | – | – | – | blocked |
